Assays:
HUVECs exposed to oxLDL = experiment: NO and ONOO^− release from HUVECs exposed to oxLDL, nanosensors (Example 8); type: cell-based, human
Procedure: Human umbilical vein endothelial cells (HUVECs) were isolated into primary cultures from female donors by Clonetics (San Diego, Calif.) and purchased as proliferating cells. All cell culture donors were healthy, with no pregnancy or prenatal complications. […] The confluent cells (4 to 5×10^5 cells/35 mm dish) were placed with minimum essential medium containing 3 mM L-arginine and 0.1 mM BH4 [(6R)-5,6,7,8-tetrahydrobiopterin]. Before experimental use, the cells (from second or third passage) were rinsed twice with Tyrode-HEPES buffer with 1.8 mM CaCl2).
The omega-3 fatty acids (O3FAs) cis-5,8,11,14,17-eicosapentaenoic acid (EPA) and docosahexaenoic acid (DHA) were purchased from Sigma-Aldrich (St. Louis, Mo.) and prepared initially at 11 mM in redistilled ethanol. Primary and secondary O3FA stock solutions were prepared and stored under argon at −20° C.
The oxLDL causes eNOS uncoupling and endothelial dysfunction to reproduce disease-like conditions. 25 Venous blood from healthy normolipidemic volunteers was collected into Na-EDTA (1 mg/mL blood) vacuum tubes after a 12-hour fast. Plasma was immediately separated by centrifugation at 3,000 g for 10 minutes at 4° C.
Tris-NaCl buffer was added to the dialyzed LDL to adjust the protein concentration to 30 mg/mL. A 1-mL aliquot of 20 μM CuSO4 was added to 1 mL of dialyzed normal LDL.
Oxidation was monitored by the use of measurements of TBARS. Briefly, LDL was incubated with thiobarbituric acid (0.5 wt/vol, in H2SO4, 50 mM) for 30 minutes at 100° C. […] TBARS concentration was determined as malondialdehyde (MDA) equivalents with the use of an MDA standard curve.
Concurrent measurements of NO and ONOO^− were performed with tandem electrochemical nanosensors combined into one working unit with a total diameter of 200-400 nm. Their design was based on previously developed and chemically modified carbon-fiber technology. Each of the nanosensors was made by depositing a sensing material on the tip of a carbon fiber (length 4 to 5 μm, diameter 100-200 nm). The fibers were sealed with nonconductive epoxy and electrically connected to copper wires with conductive silver epoxy. Conductive films of polymeric Ni(II) tetrakis (3-methoxy-4-hydroxyphenyl) porphyrin and Mn(III) [2.2] paracyclophanylporphyrin were used for the NO and ONOO^− sensors, respectively.
The amperometric method (with a response time of 0.1 ms) provides a quantitative signal (current) that is directly proportional to changes (from basal levels) in NO or ONOO^− concentration. Amperometric measurements were performed with a Gamry III double-channel potentiostat. Basal NO or ONOO^− levels were measured by differential pulse voltammetry in separate experiments.
All measurements of NO and ONOO^− were performed on intact endothelial cells. The NO/ONOO^− nanosensor module was positioned 5±2 μm from the surface of each individual endothelial cell using a computer-controlled M3301 micromanipulator (x-y-z resolution of 0.2 μm) and microscope (both from World Precision Instruments, Berlin, Germany) fitted with a CD camera.
Endothelial basal media was used for all the treatments. Controls were supplied with an equivalent volume of endothelial basal media.
Data are presented as mean±S.D. for (N) separate samples or experiments. Differences between groups were analyzed using the two-tailed, Student t-test (for comparisons between only two groups) or ANOVA followed by Student-Newman-Keuls multiple comparisons post-hoc analysis (for comparisons between three or more groups). Only differences with probability values less than 0.05 were considered significant.

human sdLDL = experiment: Copper-induced sdLDL oxidation, TBARS after 2 hr (Example 6); type: biochemical; settings: for reduction of TBARS levels compared to vehicle-treated controls: 10 μM CuSO4
Procedure: An experiment to study the antioxidant effect of EPA in small dense […] performed. […] Vitamin E (α-tocopherol) was purchased from Sigma-Aldrich and prepared in ethanol at 1.0 mM (E=[…] cm^-1 at 294 nm) just prior to experimental use. All test compounds were further diluted in ethanol or aqueous buffer as needed. Venous blood was collected from healthy volunteers into vacutainer tubes containing sodium EDTA. Plasma was separated by centrifugation at 3000 g for 25 min at 4° C. and adjusted to a density of 1.020 g/mL with KBr. Triglyceride-rich lipoproteins (TGRL) and LDL fractions were then isolated by sequential centrifugation at 70,000 rpm at 4° C. in a Beckman LE-80 ultracentrifuge using a Beckman 50.4Ti rotor (Beckman Coulter, Inc., Fullerton, Calif.). The TGRL fraction (with a relative density of <1.020) was aspirated from the top of the centrifugate and discarded, leaving an LDL-enriched […] relative density of 1.020 to 1.063). […] The sdLDL subfraction was retained for additional experimentation. Plasma and lipoprotein fractions were maintained at 4° C. and protected from excessive exposure to light. Prior to oxidation experiments, EDTA was removed from the lipoprotein fraction using PD-10 desalting columns (GE Healthcare, Piscataway N.J.). After equilibration of the column with phosphate buffered saline (PBS), 2.5 mL of the lipoprotein fraction was loaded on the column and the flow-through discarded. The lipoprotein was then eluted with 3 mL of PBS. […] Data are presented as mean+S.D. for (N) separate samples or treatment groups. Differences between groups were analyzed using the two-tailed, Student's t-test (for comparisons between only two groups) or ANOVA followed by Dunnett or Student-Newman-Keuls multiple comparisons post-hoc analysis (for comparisons between three or more groups).

[1] = oxLDL 20 min, then treatment for 1 hour, EPA 10 μM, ATM 1.0 μM
[2] = treatment 'EPA + oxLDL' (Table 1)

SMILES	NO (HUVECs exposed to oxLDL; [1]) [nM]	NO/ONOO^− Ratio (HUVECs exposed to oxLDL; [1])	ONOO^− (HUVECs exposed to oxLDL; [1])	increase in NO release in ECs exposed to oxLDL (HUVECs exposed to oxLDL; as compared to vehicle, EPA 10 μM, ATM 1.0 μM) [%]	NO (HUVECs exposed to oxLDL; [2])	NO/ONOO^− Ratio (HUVECs exposed to oxLDL; [2])	ONOO^− (HUVECs exposed to oxLDL; [2])	reduction of TBARS levels compared to vehicle-treated controls (human sdLDL; 1.0 μM) [%]	reduction of TBARS levels compared to vehicle-treated controls (human sdLDL; 10.0 μM) [%]	effect on sdLDL oxidation over the concentration range (human sdLDL; 1.0 μM to 10.0 μM)
CC/C=C\C/C=C\C/C=C\C/C=C\C/C=C\C/C=C\CCC(=O)O [DHA, docosahexaenoic acid]	567 ± 103	3.39 ± 0.72	167 ± 18							
CC/C=C\C/C=C\C/C=C\C/C=C\C/C=C\CCCC(=O)O [EPA, cis-5,8,11,14,17-eicosapentaenoic acid]	423 ± 163	2.24 ± 0.91	189 ± 25	45	663 ± 50	2.68 ± 0.28	247 ± 17	13	57	
Cc1ccc(C)c(OCCCC(C)(C)C(=O)O)c1 [gemfibrozil]	192 ± 34	0.72 ± 0.16	266 ± 34							
O=C(O)c1cccnc1 [niacin, nicotinic acid]	431 ± 100	2.00 ± 0.52	215 ± 25							
Cc1c(C)c2c(c(C)c1O)CC[C@@](C)(CCC[C@H](C)CCC[C@H](C)CCCC(C)C)O2 [vitamin E, α-tocopherol]									26	did not inhibit sdLDL oxidation except at the highest concentration

From patent US20190054054A1, “Methods reducing or preventing oxidation of high density lipoprotein (HDL)” (Amarin Pharmaceuticals Ireland Limited, priority 2017, published 2019)
